ChEMBL document CHEMBL1148456, “Structure-based design and synthesis of non-nucleoside, potent, and orally bioavailable adenosine deaminase inhibitors” (J Med Chem, 2004)
Converted amounts (≈) assume the structure as drawn.

Key:
[1] = (§1) In vitro clearance in dog liver microsomes; format: ADME, Canis lupus familiaris, Microsome; conditions: read-out: Clearance
Rattus norvegicus = species on record: Rattus norvegicus; experiment: (§2) In vitro clearance in rat liver microsomes; format: ADME, Microsome
[2] = In vitro clearance in human liver microsomes; format: ADME, Microsome; conditions: read-out: Clearance
[3] = Maximum plasma concentration in rat after po administration; format: ADME, organism-based; parameters: route oral
[4] = AUC in rat after po administration at a dose of 10 mg/kg; format: ADME, organism-based; parameters: dose 10 mg/kg, route oral; conditions: plasma, read-out: AUC 0-24h
[5] = Solubility was determined; format: physicochemical
Mus musculus [6] = experiment: Antitumor activity after administration (p.o.) with U937 cells in mice at a dose of 10 mg/kg; format: functional, U-937; conditions: route oral
[7] = Half-life in rat after po administration at a dose of 10 mg/kg; format: ADME, organism-based; parameters: dose 10 mg/kg, route oral; conditions: in vivo
Mus musculus [8] = experiment: Antitumor activity after administration (p.o.) in mice U937 cells at a dose of 10 mg/kg twice daily dosing (b.i.d.); format: functional, U-937; conditions: route oral
Canis familiaris = species on record: Canis familiaris; experiment: as §1; format: ADME, Canis lupus familiaris, Microsome
[9] = Oral bioavailability in dog (dose 10 mg/kg); format: ADME, organism-based, Canis lupus familiaris; conditions: in vivo
Mus musculus [10] = experiment: Antitumor activity after administration (p.o.) in mice U937 cells at a dose of 32 mg/kg once daily dosing (u.i.d.); format: functional, U-937; conditions: route oral
[11] = as §2; format: ADME, Microsome; conditions: read-out: Clearance
[12] = Oral bioavailability in rat (dose 10 mg/kg); format: ADME, organism-based; conditions: in vivo
Mus musculus [13] = experiment: Antitumor activity after administration (p.o.) in mice U937 cells at a dose of 32 mg/kg twice daily dosing (b.i.d.); format: functional, U-937; conditions: route oral
[14] = target: T1, Adenosine deaminase (Homo sapiens) (UniProt P00813); conditions: Rattus norvegicus
T1 sequence (whole entry): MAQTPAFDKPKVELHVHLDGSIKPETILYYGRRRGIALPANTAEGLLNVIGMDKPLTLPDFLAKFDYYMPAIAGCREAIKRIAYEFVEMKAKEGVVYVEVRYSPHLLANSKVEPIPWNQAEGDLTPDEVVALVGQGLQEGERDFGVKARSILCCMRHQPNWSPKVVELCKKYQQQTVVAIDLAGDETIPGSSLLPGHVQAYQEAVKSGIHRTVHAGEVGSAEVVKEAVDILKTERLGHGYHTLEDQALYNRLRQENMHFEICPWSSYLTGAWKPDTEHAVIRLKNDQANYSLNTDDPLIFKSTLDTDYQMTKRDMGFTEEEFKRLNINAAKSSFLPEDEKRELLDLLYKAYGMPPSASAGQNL
Description: In vivo anti-inflammatory activity against adenosine deaminase (ADA) in the adjuvant arthritis model in rat (p.o.)

Mus musculus [15] = experiment: Antitumor activity after administration (i.p.) in mice U937 cells at a dose of 2.5 mg/kg; conditions: route intraperitoneal
Mus musculus [16] = experiment: Antitumor activity after administration (i.p.) in mice U937 cells at a dose of 0.025 mg/kg; format: functional, U-937; conditions: route intraperitoneal
Mus musculus [17] = experiment: Antitumor activity after administration (i.p.) in mice U937 cells at a dose of 0.25 mg/kg; conditions: route intraperitoneal

CLint scaled [2] [mL/min/kg] | AUC [4] [ng·h/mL] | Solubility [5] [µg/mL] | half-life [7] [h] | bioavailability [9] [%] | CLint scaled [11] [mL/min/kg] | bioavailability [12] [%] | Structure (SMILES) | other results
123 | < 100 | 4.2 (≈ 8.41 µM) |  |  |  |  | Cn1c(CCC(=O)Nc2ccc3ccn(CC[C@H](CO)n4cnc(C(N)=O)c4)c3c2)nc2ccccc21 | CLint scaled [1]: 97 mL/min/kg; Clearance (Rattus norvegicus): 35 mL/min/kg; Cmax [3]: < 100 ng/mL
 |  |  |  |  |  |  | Nc1ncnc2c1ncn2[C@@H]1O[C@H](CO)[C@@H](O)[C@@H]1O [VIDARABINE] | MST (Mus musculus [6]): 23.5 days
 |  |  |  |  |  |  | C[C@H](O)[C@@H](CCOc1ccc2ccccc2c1)n1cnc(C(N)=O)c1.Cl | MST (Mus musculus [8]): 34 days; MST (Mus musculus [10]): 38 days; MST (Mus musculus [13]): 42.5 days
45 | 1370 | 481 (≈ 1490 µM) | 0.66 | 38 | 307 | 30 | C[C@H](O)[C@@H](CCc1cccc2ccccc12)n1cnc(C(N)=O)c1 | 
4.5 | 2110 | 500 (≈ 1460 µM) | 1.66 | 43 | 111 | 44 | C[C@H](O)[C@@H](CCc1cccc(Cl)c1Cl)n1cnc(C(N)=O)c1 | ED30 [14]: 1.6 mg/kg
 |  |  |  |  |  |  | OC[C@H]1O[C@@H](n2cnc3c2N=CNC[C@H]3O)C[C@@H]1O [PENTOSTATIN] | MST (Mus musculus [15]): 42.5 days; MST (Mus musculus [16]): 28.5 days; MST (Mus musculus [17]): 34 days

Structure (SMILES) | CLint scaled [2] [mL/min/kg] | AUC [4] [ng·h/mL] | Solubility [5] [µg/mL] | half-life [7] [h] | bioavailability [9] [%] | CLint scaled [11] [mL/min/kg] | bioavailability [12] [%] | other results
C[C@H](O)[C@@H](CCOc1ccc2ccccc2c1)n1cnc(C(N)=O)c1 | 3.8 | 1850 | 80 (≈ 236 µM) | 1.12 | 91 | 79 | 42 | MST (Mus musculus [8]): 30 days; Clearance (Canis familiaris): 11 mL/min/kg; MST (Mus musculus [10]): 30 days; MST (Mus musculus [13]): 35.5 days; Cmax [3]: 970 ng/mL
